Laboratory results published in patent publication US20200207989A1, “FLUORESCENT PROBE FOR ALDH3A1 DETECTION” (The University of Tokyo, priority 2016, published 2020).

Biological target: T1, ALDH3A1 (Homo sapiens, UniProt P30838)
T1 construct: purchased
T1 sequence (P30838 1-453): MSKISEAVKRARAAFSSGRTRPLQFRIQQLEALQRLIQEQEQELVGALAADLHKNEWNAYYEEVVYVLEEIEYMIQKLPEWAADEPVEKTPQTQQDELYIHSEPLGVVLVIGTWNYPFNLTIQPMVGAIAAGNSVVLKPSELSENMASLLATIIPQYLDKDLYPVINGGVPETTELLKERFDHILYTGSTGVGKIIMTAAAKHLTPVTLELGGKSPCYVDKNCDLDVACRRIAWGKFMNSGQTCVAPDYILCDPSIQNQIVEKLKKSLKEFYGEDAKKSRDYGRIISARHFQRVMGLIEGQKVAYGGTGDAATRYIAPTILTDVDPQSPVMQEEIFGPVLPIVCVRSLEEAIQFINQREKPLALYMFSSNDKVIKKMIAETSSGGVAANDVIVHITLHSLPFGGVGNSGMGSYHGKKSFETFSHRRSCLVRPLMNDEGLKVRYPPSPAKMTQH
Test: Kinetic characteristics (Michaelis-Menten Km, Kcat) with ALDH3A1
Format: biochemical
Description: Human recombinant ALDH1A1/1A3/3A1 was purchased, and 100 mM of KCL, 2 mM of DTT, 1 mM of NAD(P), 10-100 nM of each ALDH, and 10-80 μM of each compound were mixed in Tris buffer (100 mM, pH 7.5), reacted for 30 minutes at 37° C., an equal amount of acetonitrile added, and the reaction stopped. The reaction solution was analyzed by UPLC/MS/MS (Waters). The UPCL chromatogram was carried out over five minutes at a flow rate of 800 μL/min by a linear gradient from 5% acetonitrile 0.01 M ammonium formate/water to 95% acetonitrile 0.01 M ammonium formate/water. An aldehyde-form and carboxylic acid-form probe were detected by the absorbance at a wavelength of 504 nm, and m/z of the MS spectrum at each peak was confirmed to agree with the expected m/z.
For the reaction, 100 mM of KCL, 2 mM of DTT, 1 mM of NAD(P), and five to six concentrations within the range of 10-100 nM of each ALDH and 0.1-80 μM of each probe were selected, mixed in Tris buffer (100 mM, pH 7.5), and reacted for five minutes at 37° C.; an equal amount of acetonitrile was added, and the reaction was stopped. Detection of the aldehyde-form/carboxylic acid-form probes was carried out using the same method as described above by UPLC/MS/MS. Km and Kcat were calculated by fitting the reaction rate at each probe concentration obtained to the Michaelis-Menten equation. A Kaleida Graph ver. 4.1 (Hulinks, Inc.) was used in fitting.
The Kcat ratio (Kcat of ALDH3A1/Kcat of ALDH1A1) was calculated for probe 1, probe 3, and probe 5 as an indicator of ALDH1A1/ALDH3A1 specificity because the probe reaction rate at the actual probe use concentration is believed to be close to Vmax since Km is relatively small (Table 5).

[1] = five minutes at 37° C., Tris buffer pH 7.5

Substance: N-(4-formylbenzyl)-3-(1,3-dimethyl-4,4-difluoro-4-bora-3a,4a-diaza-s-indacen-5-yl)-propionamide [Probe 1]
- Kcat ALDH3A1 [1]: 1.12 ± 0.08 s⁻¹
- Km [1]: 58.9 ± 7.6 µM
- Kcat ratio (Kcat of ALDH3A1/Kcat of ALDH1A1) (indicator of ALDH1A1/ALDH3A1 specificity): 0.8
